From patent US20260315564A1, “THE USE OF TP3 (THYMOPENTIN ANALOG) BY INCREASING THE ACTIVITY AND NUMBER OF T-CELLS INVOLVED IN THE DEFENSE MECHANISM OF THE IMMUNE SYSTEM OF MAMMALS, FOR THE PREVENTION OR TREATMENT OF DISEASES TO EXTEND THE AVERAGE LIFESPAN” (priority 2023, published 2026)
Marks after values point to notes of the source that are not given here. Residues, ends and D or L forms follow the SMILES beside them.

Tests used:
[1] = test system: Anti-SRBC-Ab (IgM); experiment: Anti-SRBC-Ab titer (IgM) in newborn rats after 9x treatment (hemagglutination); assay type: in vivo, Hannover Wistar rats (newborn); settings: 9x (3x3 weeks/ip), n = 12, control 6.3 (TP5), 5.2 (TP3)
Protocol: (§1) Rats (Hannover Wistar) were treated (i.p.) within 6-12 hours after birth. Treatments after birth in a single session or in another examination • on the 7th day after the first treatment; • another group was vaccinated 3 times a week after the first day of […]. treatment • in a subsequent group treated over three weeks (9× in total) (10-3,10-5,10-7//10-9, 10-11,10-12, 10-13 M/animal, i.p). • in the fourth test series, the animals were treated with TP fragments at 0, 1, 2, 4, or 5 days of age. The rats were unanimously immunized on the 14th day after birth (1% BVVT with 0.5 ml cell suspension, i.p.). Immune responses were measured after 7 days on day 21 of the experiment.
(§2) Rats (Hannover Wistar) were treated (i.p.) within 6-12 hours after birth. Treatments after birth in a single session or in another examination • on the 7th day after the first treatment; • another group was vaccinated 3 times a week after the first day of treatment. • in a subsequent group, the treatments took place over three weeks (9× in total) (10-3,10-5,10-7//10-9, 10-11,10-12,10-13 M/animal, i.p.). • in the fourth test series, the animals were treated with TP fragments at 0, 1, 2, 4, or 5 days of age. The rats were randomly immunized on the 14th day after birth (1% BVVT with 0.5 ml cell suspension, i.p.). Immune responses were measured after 7 days on day 21 of the experiment. 1.2. Determination of anti-BVVT Ab titers (from rat blood samples ex vivo) • with the haemagglutination method (Takátsy and Fürész, 1955) on 96-well plates (Flow). 50 ul of 0.9% NaCl solution was added to each well. The sera (50 μl) were diluted by half dilution in 12 steps, mixed with 25 pμl 2% BVVT cell suspension, and incubated (1 hour at 37 °C). The hemagglutination titers of the sera are determined. Values expressed in logarithmic values refer to total agglutination.

[2] = test system: PFC (plaque-forming cells); experiment: PFC (plaque-forming cells) in H. Wistar rats; assay type: in vivo, Hannover Wistar rats (newborn); settings: for PFC (plaque-forming cells): 1x/ip, control 53.9 ± 8.8; for PFC (plaque-forming cells) / number of PFC: n = 12; for number of PFC: 9x (3x3 weeks/ip), control 139 ± 12.7
Protocol: as §1, §2
(§3) 1.3./Determination of the number of plaque-forming cells (PFC) (using rat spleen cells) The chopped splenocytes were placed in a culture medium (Parker 199) and then shaken with a shaker for 1 minute. The cells were suctioned from the surface of the rapidly settling tissue debris. Red blood cells were removed osmotically. Cell suspensions were adjusted to 107/ml. The cell suspensions were mixed with a 15% BVVT cell suspension in a ratio of 2:1. PFC was determined with the mixture using a modified chamber technique according to Channingham et al., 1966). Before filling the chamber, 50 μl of fresh diluted guinea pig serum (1:20) was added. The chambers (2-2/slide) were incubated (370C 45′) after sealing with paraffin, the formed plaques were counted under a microscope (at 400× magnification) within 2 hours Marker tests related to the rejection reaction of an adult thymus-depleted mouse skin graft 1.4./Rejection of skin transplants in nude mice after treatment with TP fragments (Snell et al., Transplantation 5, 492, 1967).

[3] = test system: Antibody production (immunized with BVVT); experiment: Antibody production (anti-BVVT titer) in Balb/c nu/nu mice; assay type: in vivo; settings: ip, n = 10/group, control < 3.0
Protocol: as §2
(§4) Mice were treated for 4 weeks 3 times a week (every other day) with TP fragments (10-9, 10-8, 10-7//10-3, 10-2, 10-1 M/animal ip. (Veys et al., 1983) at the end of the treatments ([…]), the mice were immunized (with 0.5 ml 1% BVVT suspension ip. The immune response was expressed in antibody titers as above).

[4] = test system: plaque-forming cells (PFC); experiment: Number of plaque-forming cells (PFC) in Balb/c nu/nu mice; assay type: in vivo; settings: for number of plaque-forming cells (PFC): n = 8/group, control 55.7 (TP5), 53.0 (TP3)
Protocol: as §3, §4

[5] = 12-24 months, Friedmann 1985, in words; cited from earlier work
[6] = test system: tumour patients (metastatic melanoma); settings: 26 studies, 2,736 patients, in words, cited from earlier work
[7] = test system: DTH reaction (PPD); experiment: Delayed-type hypersensitivity (DTH) reaction in guinea pigs; assay type: in vivo; settings: n = 12/group, PPD 217.9

## CC(C)[C@H](NC(=O)[C@H](CC(=O)O)NC(=O)[C@H](CCCCN)NC(=O)[C@@H](N)CCCN=C(N)N)C(=O)N[C@@H](Cc1ccc(O)cc1)C(=O)O [TP5] (H-RKDVY-OH)
[1]; 10^-3 M/animal
  Anti-SRBC-Ab titer (IgM): 7.3 2 log
[1]; 10^-4 M/animal
  Anti-SRBC-Ab titer (IgM): 8.2* 2 log
[1]; 10^-5 M/animal
  Anti-SRBC-Ab titer (IgM): 8.6* 2 log
[1]; 10^-6 M/animal
  Anti-SRBC-Ab titer (IgM): 7.5 2 log
[1]; 10^-9 M/animal
  Anti-SRBC-Ab titer (IgM): 7.2 2 log
[1]; 10^-11 M/animal
  Anti-SRBC-Ab titer (IgM): 10.7* 2 log
[1]; 10^-13 M/animal
  Anti-SRBC-Ab titer (IgM): 7.9* 2 log
[2]; 10^-6 M/animal
  PFC (plaque-forming cells): 71
  number of PFC: 159
[2]; 10^-7 M/animal
  PFC (plaque-forming cells): 129*
  number of PFC: 203*
[2]; 10^-8 M/animal
  PFC (plaque-forming cells): 148*
  number of PFC: 223*
[2]; 10^-9 M/animal
  PFC (plaque-forming cells): 90*
  number of PFC: 126
[2]; 10^-10 M/animal
  PFC (plaque-forming cells): 76
  number of PFC: 185*
[2]; 10^-11 M/animal
  PFC (plaque-forming cells): 75
  number of PFC: 162
[2]; 10^-13 M/animal
  PFC (plaque-forming cells): 67
  number of PFC: 143
[2]; comparison, in words
  potency TP3 versus TP5 (PFC): TP3=TP5 potency
[3]; 10^-2 M/mouse (M/eger)
  antibody production (titer): 26.4 **
[3]; 10^-3 M/mouse (M/eger)
  antibody production (titer): 19.8
[3]; 10^-4 M/mouse (M/eger)
  antibody production (titer): 11.9
[3]; 10^-7 M/mouse (M/eger)
  antibody production (titer): 24.6 **
[3]; 10^-8 M/mouse (M/eger)
  antibody production (titer): 19.9 *
[3]; 10^-9 M/mouse (M/eger)
  antibody production (titer): 14.5
[4]; 10^-1 M/mouse (M/eger)
  number of plaque-forming cells (PFC): 76.5*
[4]; 10^-2 M/mouse (M/eger)
  number of plaque-forming cells (PFC): 73.0*
[4]; 10^-3 M/mouse (M/eger)
  number of plaque-forming cells (PFC): 67.4
[4]; 10^-3 M/mouse/i.p.
  increase in number of PFC cells: 35%
[4]; 10^-6 M/mouse (M/eger)
  number of plaque-forming cells (PFC): 72.5*
[4]; 10^-7 M/mouse (M/eger)
  number of plaque-forming cells (PFC): 71.0*
[4]; 10^-8 M/mouse (M/eger)
  number of plaque-forming cells (PFC): 9.5
[5]
  safety in patients: well-used, safe drug candidate
[6]; in parallel with radiation or chemotherapy
  severe infections: promising results in reducing severe infections
[6]
  number of survivors: not significantly affected
[7]; 0.1 mg/kg/s.c.
  DTH reaction, skin redness (bőrpir): 127.7* mm/π
[7]; 1.0 mg/kg/s.c.
  DTH reaction, skin redness (bőrpir): 158.1 mm/π
[7]; 20.0 mg/kg/s.c.
  DTH reaction, skin redness (bőrpir): 194.6 mm/π
